Experiments:
[1] = test system: Pseudomonas syringae pv. tabaci; assay: Relative inactivation of Pseudomonas syringae pv. tabaci in PBS (CFU count); assay type: cell-based; settings: for Relative Inactivation (log[CFUcontrol mL^−1] − log[CFUtreatment mL^−1]): concentration not given; for Killing of bacteria: light treatment
Method: Experiments were conducted to evaluate control of the gram-negative bacterial plant pathogen Pseudomonas syringae pv. tabaci with modified Ce6. Treatments were prepared in Phosphate Buffered Saline (PBS) in 96 well plates at desired concentrations. A bacterial suspension was inoculated into the PBS and incubated at 28° C. in the dark for 30 min. After 30 min, the 96 well plate was placed under illumination for 1 hour (at 21° C.). A separate plate prepared at the same time was kept in the dark without illumination and served as dark control. Following illumination, bacterial suspensions were serially diluted and 10 μL of each dilution was spread uniformly on Tryptic Soy Agar (TSA) plates and placed in the dark in an incubator at 28° C. for 48 hours. After 48 hours, bacterial colonies were counted and results were log transformed (log colony forming units (CFU)/mL). The relative inactivation was determined by taking the difference between log CFU (PBS control) and log CFU (treatments). Sample Illumination was provided by LED lights (Heliospectra RX30) emitting about 1000 μmol/m^2/s photosynthetically active radiation (PAR). The modified Ce6 that were evaluated are the Ce6-mix-DMAE^15,17 amide, Ce6-bis-DMAE^15,17 amide and Ce6-mono-DMAE^15 amide.

[2] = test system: dollar spot fungus (Sclerotinia homoeocarpa); assay: Dollar spot fungus agar plate assay (amended PDA, radial growth); assay type: cell-based; settings: for inhibition at 10 µM: Clarireedia homoeocarpa
Method: Control of dollar spot fungus (Sclerotinia homoeocarpa) with Ce6-mix-DMAE^15,17 amide and Ce6Na3 (comparative) was assessed. Treatments were amended into Potato Dextrose Agar (PDA) at desired concentrations. Then, a 5 mm diameter plug of a Sclerotinia homoeocarpa isolate (3 isolates total tested) was inoculated into the center of the amended Petri-dish and incubated at 21° C. in the dark for 24 h. After 24 h, one set of Petri-dishes (in triplicate) was left in the dark (no light) and one set was placed under illumination (light) for the remainder of the experiment (all at 21° C.). Radial growth of the fungus was monitored daily until the growth of S. homoeocarpa on non-amended PDA reached the edge of the Petri-dish. Illumination was provided by fluorescent lights emitting about 180 μmol/m^2/s photosynthetically active radiation (PAR).
Agar protocol: control of dollar spot fungus (Sclerotinia homoeocarpa) with modified Ce6 was assessed. Treatments were amended into Potato Dextrose Agar (PDA) at desired concentrations. Then, a 5 mm diameter plug of a Sclerotinia homoeocarpa isolate (3 isolates total tested) was inoculated into the center of the amended Petri-dish and incubated at 21° C. in the dark for 24 hours. After 24 hours, one set of Petri-dishes (in triplicate) was left in the dark and one set was placed under illumination for the remainder of the experiment (all at 21° C.). Radial growth of the fungus was monitored daily until the growth of S. homoeocarpa on non-amended PDA reaches the edge of the Petri-dish. Illumination was provided by fluorescent lights emitting about 180 μmol/m2/s photosynthetically active radiation (PAR).

[3] = test system: Colletotrichum orbiculare ATC20767 (Cgm); assay: Control of fungal pathogen Cgm on Nicotiana benthamiana; assay type: in vivo; settings: 0.05% + Surfactants (0.5% propylene glycol + 0.1% Pluronics F-127) (Table 14); host Nicotiana benthamiana
Method: Control of the fungal plant pathogen Colletotrichum orbiculare ATC20767 (Cgm) on the host plant Nicotiana benthamiana following treatment with modified Chlorin e6 compounds was assessed. Treatments were applied to N. benthamiana plants approximately 2 h prior to inoculation with a spore suspension of Cgm. Plants were then exposed to light for a 24-hour period followed by dark incubation until disease symptoms were evident on the water treated control plants. Once disease symptoms were evident, lesions were counted and leaf area measured in order to determine the number of lesions/cm^2 leaf area. Four replicate plants were used per treatment and plants were randomized under the light source. Illumination was provided by LED lights emitting about 180 μmol/m^2/s photosynthetically active radiation (PAR).

[4] = test system: Pseudomonas syringae pv tabacci; assay: Control of bacterial pathogen Pst on Arabidopsis thaliana; assay type: in vivo; settings: 0.05% + surfactants (0.5% propylene glycol + 0.1% Pluronics F-127); host Arabidopsis thaliana; yellow leaves/plant
Method: Arabidopsis thaliana plants were grown under 12 hours:12 hours, light:dark photoperiod, under LED lights (PAR 24 μmol m^−2 s^−1), at a temperature of 25° C.±3° C. and 65% relative humidity. After 3 weeks, plants were sprayed with formulations (50% dilution in water), allowed to dry for 2 h, after which Pseudomonas syringae pv tabacci (at OD0.08 diluted in 10 mM MgCl2) was sprayed. Plants were kept under plastic domes until symptoms develop. Disease severity was rated by counting the number of yellow leaves/plant. Data are average of 3 replicas.

[5] = test system: dollar spot fungus (Sclerotinia homoeocarpa); assay: Dollar spot fungus broth protocol (PBS treatment, then radial growth on PDA); assay type: cell-based; settings: Broth data; for inhibition at 100 µM: Clarireedia homoeocarpa
Method: Broth protocol: control of dollar spot fungus (Sclerotinia homoeocarpa) with modified chlorins was assessed. Treatments were prepared in Phosphate Buffered Saline (PBS) in 24 well plates (in duplicates for light vs. dark incubation) at desired concentrations. Then, a 5 mm diameter plug of a Sclerotinia homoeocarpa isolate (3 isolates total tested) was inoculated into the PBS and incubated at 21° C. in the dark for 2 hours. After 2 hours, one of the 24 well plates (with isolates in triplicate) was left in the dark and one 24 well plate was placed under illumination for 1 hour (all at 21° C.). Following illumination, fungal plugs were removed from PBS, blotted dry on sterile filter paper and transferred to non-amended Potato Dextrose Agar (PDA). Radial growth of the fungus was monitored daily until the growth of S. homoeocarpa reached the edge of the Petri-dish. Illumination was provided by LED lights emitting about 1000 μmol/m2/s photosynthetically active radiation (PAR).

[6] = test system: Kentucky bluegrass (Poa pratensis); assay: Kentucky bluegrass tolerance to salt stress (turf quality); assay type: in vivo; settings: 0.1%; 170 mM NaCl, 2 salt applications; scale 1-9 (1=dead, 9=healthy)
Method: Kentucky bluegrass (Poa pratensis) was grown under greenhouse conditions for ˜3 weeks. After 3 weeks, plants were sprayed with formulations and allowed to sit for 24 hours, after which the pots were placed in a 170 mM NaCl solution until the soil was saturated. The salt application was repeated again 7 days later for a total of 2 salt applications. Salinity stress was evaluated based on a turf quality scale of 1-9; where 1=dead, brown turf; 6=minimally acceptable turf quality (based on standards for golf courses or sports fields); and 9=dense, dark green turf (healthy). Data are average of 5 replicates.

[7] = Light: 1 hour about 1000 μmol/m^2/s PAR after 30 min dark incubation, where no CFU were left, treatment set to 1 CFU/mL
[8] = Agar data, 10 uM, Dark (Table 5)
[9] = Agar data, 10 uM, Light (Table 5)

## C=Cc1c(C)c2cc3nc(c(CC(=O)NCCN(C)C)c4[nH]c(cc5nc(cc1[nH]2)C(C)=C5CC)c(C)c4C(=O)O)[C@@H](CCC(=O)NCCN(C)C)[C@@H]3C [Ce6-bis-DMAE^15,17 amide]
[1]; Dark control plate
  Relative Inactivation (log[CFUcontrol mL^−1] − log[CFUtreatment mL^−1]): 1.13 ± 0.42
[1]; [7]
  Relative Inactivation (log[CFUcontrol mL^−1] − log[CFUtreatment mL^−1]): 7.98 ± 0.65
[1]
  Killing of bacteria: killed all bacteria

## C=Cc1c(C)c2cc3nc(c(CC(=O)NCCNCCCC)c4[nH]c(cc5nc(cc1[nH]2)C(C)=C5CC)c(C)c4C(=O)O)[C@@H](CCC(=O)O)[C@@H]3C [Ce6-mono-BAE^15 amide]
[2]; [8]
  inhibition at 10 µM: 49%
[2]; [9]
  inhibition at 10 µM: 99%

## C=Cc1c(C)c2cc3nc(c(CC(=O)NCCN(C)C)c4[nH]c(cc5nc(cc1[nH]2)C(C)=C5CC)c(C)c4C(=O)O)[C@@H](CCC(=O)O)[C@@H]3C [Ce6-mono-DMAE^15 amide]
[1]; Dark control plate
  Relative Inactivation (log[CFUcontrol mL^−1] − log[CFUtreatment mL^−1]): 0.21 ± 0.33
[1]; [7]
  Relative Inactivation (log[CFUcontrol mL^−1] − log[CFUtreatment mL^−1]): 7.98 ± 0.65
[1]
  Killing of bacteria: killed all bacteria
[3]
  Disease inhibition, %: 94%
[4]
  Disease inhibition, %: 56%

## C=Cc1c(C)c2cc3nc(c(CC(=O)NCCOP(=O)(O)O)c4[nH]c(cc5nc(cc1[nH]2)C(C)=C5CC)c(C)c4C(=O)O)[C@@H](CCC(=O)O)[C@@H]3C [Ce6-mono-EP OA^15]
[5]; 100 uM, Dark
  inhibition at 100 µM: -5%
[5]; 100 uM, Light
  inhibition at 100 µM: 71%

## C=Cc1c(C)c2cc3nc(c(CC(=O)[O-])c4[nH]c(cc5nc(cc1[nH]2)C(C)=C5CC)c(C)c4C(=O)[O-])[C@@H](CCC(=O)[O-])[C@@H]3C.[Na+].[Na+].[Na+] [Ce6Na3]
[2]; [8]
  Inhibition: 26%
[2]; [9]
  Inhibition: 74%
[2]; Light, 5 μM, agar plate
  Inhibition: 39%
[2]; Light, 10 μM, agar plate
  Inhibition: 74%
[2]; Light, 31 μM, agar plate
  Inhibition: 99%
[2]; No Light, 5 μM, agar plate
  Inhibition: 13%
[2]; No Light, 10 μM, agar plate
  Inhibition: 26%
[2]; No Light, 31 μM, agar plate
  Inhibition: 44%
[5]; 10 uM, Dark
  Inhibition: −4%
[5]; 10 uM, Light
  Inhibition: 53%
[5]; 100 uM, Dark
  Inhibition: 16%
[5]; 100 uM, Light
  Inhibition: 66%
[1]; Dark control plate
  Relative Inactivation (log[CFUcontrol mL^−1] − log[CFUtreatment mL^−1]): −0.03 ± 0.13
[1]; [7]
  Relative Inactivation (log[CFUcontrol mL^−1] − log[CFUtreatment mL^−1]): 0.39 ± 0.29
[6]
  Turf Quality: 6
